# Laboratory results reported in patent US20230293535A1, “ERBB/BTK INHIBITORS” (Dizal (Jiangsu) Pharmaceutical Co., Ltd., priority 2018, published 2023).
# pIC50: −log10 of the molar value. Counter-ions that a name gives are not always drawn. Like-named read-outs stand apart in the source and are kept apart here.
# Key:
# Assay type in all cases: cell-based
# DB cells = test: BTK (wt) cell proliferation, DB (CellTiter-Glo, 72 h); conditions: Homo sapiens, DB, read-out: Non-BCR activated DB GI50;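 note: DB cells in 384-well plates given a dilution series of compound, viable cells read by ATP luminescence, growth expressed versus DMSO control after subtracting a time-zero plate reading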
# OCI-LY-10 cells = test: BTK (wt) cell proliferation, OCI-LY-10 (CellTiter-Glo, 72 h); conditions: Homo sapiens, OCI-Ly10, 72 h, read-out: BTK WT OCI-LY-10 GI50;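 note: viable cells quantified via cellular ATP luminescence, proliferation given as percent of DMSO control after subtracting a duplicate plate read at time of dosing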
# Ri-1 cells = test: BTK (wt) cell proliferation, Ri-1 (CellTiter-Glo, 72 h); conditions: Ri-1, 72 h, read-out: BTK WT Ri-1 GI50;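 note: viable cells quantified as cellular ATP luminescence, proliferation normalized to a time-zero plate and the DMSO control, compounds tested across a dilution series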
# Ba/F3 EGFR NPH ins cells = test: Cell proliferation, Ba/F3 EGFR NPH ins (CellTiter-Glo, 72 h); conditions: Ba/F3 EGFR, 72 h;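 note: IL3-independent cells carrying constitutively phosphorylated EGFR, compound dilution series, viable cells quantified by ATP luminescence, growth relative to DMSO wells after subtracting pre-dosing (day 0) baseline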
# WT EGFR cell line A-431 = test: Cell proliferation, WT EGFR A431 (CellTiter-Glo, 72 h); conditions: Homo sapiens, A-431, 72 h;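 note: proliferation from a luminescent ATP viability signal, expressed as 100 × (treated minus time-zero plate) over (DMSO control minus time-zero plate), cells grown with 10% FBS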
# Ba/F3 EGFR ASV ins cells = test: Cell proliferation, Ba/F3 EGFR ASV ins (CellTiter-Glo, 72 h); conditions: Ba/F3 EGFR, 72 h;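 note: IL3-independent Ba/F3 cells transduced with EGFR V769_D770insASV, cellular ATP luminescence after compound exposure, growth relative to DMSO control with the day-0 baseline reading subtracted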
# TMD-8 cells = test: BTK (wt) cell proliferation, TMD-8 (CellTiter-Glo, 72 h); conditions: Homo sapiens, TMD8, 72 h, read-out: BTK WT TMD-8 GI50;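 note: viable cells quantified by ATP-based luminescence, proliferation expressed as percent of DMSO control after subtracting a time-zero baseline plate read at dosing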
# [1] = system: Her2 exon 20 insertion YVMA transduced NIH-3T3 cell line; test: Cell proliferation, Her2 YVMAins NIH-3T3 (CellTiter-Glo, 72 h); conditions: Mus musculus, NIH3T3, 72 h;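 note: viable cells quantified by ATP luminescence, growth over a day-zero baseline plate expressed as percent of DMSO control growth, compound dilution series in 10% FBS medium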
# [2] = system: NCI-H1975 EGFR L858R/T790M cells; test: Cell proliferation, NCI-H1975 EGFR L858R/T790M (CellTiter-Glo, 72 h); conditions: Homo sapiens, NCI-H1975, 72 h;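 note: viable cells quantified by luciferase-based ATP luminescence, proliferation expressed relative to DMSO-treated wells (100%) after subtracting a parallel plate read at the time of dosing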
# Procedure: WT or mutant cells were seeded in 384 well plates at appropriate concentrations with corresponding growth media supplemented with 10% FBS, for each experiment, identical plates were prepared in duplicates, and the plates were incubated overnight. On the next day, one of each duplicated plates was dosed with tested compounds at a series of concentrations, and another one of the duplicated plate was analysied for G0 value. The dosed plates were incubate for another 72 h at 37° C. with 5% CO2 and the number of viable cells in each well of the G0 plates or the dosed plates were measured by CellTiter-Glo® Luminescent Cell Viability Assay (Promega). This assay is a luminescent method for determining the number viable cells through measurement of cellular ATP concentration by detection of luciferase activity. Detection reagents (15 µl) was dispensed into per well, and the plates were incubate for 30 min at room temperature. Then, the luminescence in each well was measured using the Envision plate reader (PerkinElmer). The percentage of proliferation was calculated based on the formula: %Proliferation= 100 × (G3 value of sample well-Go value)/(G3 value of DMSO control-Go value).
# [3] = biological target: T1, human Her2 exon 20 insertion mutation YVMA (Homo sapiens, UniProt P04626, INS775YVMA); test: Her2 Exon 20 YVMA insertion cellular phosphorylation inhibition (MSD p-Her2 Y1248/total Her2); conditions: Her2 YVMAins cells, 4 h compound;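 note: lentivirally transduced NIH-3T3 cells in 1% FBS medium, electrochemiluminescent MSD read-out, graded compound concentrations at 37 °C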
# T1 construct: expressed in transfected cells; host or cells: NIH-3T3, lentiviral transduction, puromycin selection
# T1 sequence (P04626 with tags, fused parts or gaps INS775YVMA): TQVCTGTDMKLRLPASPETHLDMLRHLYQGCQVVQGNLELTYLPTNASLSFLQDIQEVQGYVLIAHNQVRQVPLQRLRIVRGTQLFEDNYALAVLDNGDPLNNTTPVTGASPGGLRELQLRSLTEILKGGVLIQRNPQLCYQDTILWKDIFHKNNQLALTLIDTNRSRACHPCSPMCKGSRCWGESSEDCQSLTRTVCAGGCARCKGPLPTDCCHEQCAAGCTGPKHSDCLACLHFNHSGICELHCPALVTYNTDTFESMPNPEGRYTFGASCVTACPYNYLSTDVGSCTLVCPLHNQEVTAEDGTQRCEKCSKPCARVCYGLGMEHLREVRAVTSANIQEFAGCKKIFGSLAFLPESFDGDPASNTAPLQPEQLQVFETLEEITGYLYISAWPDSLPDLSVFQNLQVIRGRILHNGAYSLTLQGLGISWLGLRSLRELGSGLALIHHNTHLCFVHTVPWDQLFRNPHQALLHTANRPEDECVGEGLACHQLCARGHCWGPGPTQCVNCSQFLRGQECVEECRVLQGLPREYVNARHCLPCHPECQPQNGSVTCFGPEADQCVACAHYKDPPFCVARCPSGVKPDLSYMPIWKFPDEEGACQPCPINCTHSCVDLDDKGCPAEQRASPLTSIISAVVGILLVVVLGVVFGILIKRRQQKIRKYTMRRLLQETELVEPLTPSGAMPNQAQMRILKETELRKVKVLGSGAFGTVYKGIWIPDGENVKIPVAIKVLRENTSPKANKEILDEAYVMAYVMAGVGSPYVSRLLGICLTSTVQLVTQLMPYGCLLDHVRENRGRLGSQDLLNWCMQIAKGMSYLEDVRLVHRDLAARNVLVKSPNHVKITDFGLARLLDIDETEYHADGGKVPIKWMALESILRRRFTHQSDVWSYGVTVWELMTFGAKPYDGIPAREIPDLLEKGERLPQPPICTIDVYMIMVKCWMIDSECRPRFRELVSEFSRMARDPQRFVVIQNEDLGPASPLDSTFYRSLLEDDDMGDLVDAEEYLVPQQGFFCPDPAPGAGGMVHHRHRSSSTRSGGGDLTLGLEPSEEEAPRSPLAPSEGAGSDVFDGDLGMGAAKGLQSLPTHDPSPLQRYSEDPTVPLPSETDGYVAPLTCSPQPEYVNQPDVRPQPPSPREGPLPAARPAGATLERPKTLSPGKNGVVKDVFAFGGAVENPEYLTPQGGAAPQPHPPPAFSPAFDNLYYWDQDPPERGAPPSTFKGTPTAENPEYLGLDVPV
# [4] = biological target: T2, human EGFR exon 20 H773_V774insNPH (Homo sapiens, UniProt P00533, INS773NPH); test: EGFR Exon20 NPH insertion cellular phosphorylation inhibition (MSD pEGFR Y1068/total EGFR); conditions: Ba/F3 EGFR NPH ins cells, 4 h compound, p-EGFR(Y1068)/total EGFR;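 note: IL3-independent Ba/F3 cells with constitutively phosphorylated EGFR, compound exposure at 37 °C under 5% CO2, electrochemiluminescent MSD measurement of the p-EGFR to total EGFR ratio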
# T2 construct: host or cells: Ba/F3
# T2 sequence (P00533 with tags, fused parts or gaps INS773NPH): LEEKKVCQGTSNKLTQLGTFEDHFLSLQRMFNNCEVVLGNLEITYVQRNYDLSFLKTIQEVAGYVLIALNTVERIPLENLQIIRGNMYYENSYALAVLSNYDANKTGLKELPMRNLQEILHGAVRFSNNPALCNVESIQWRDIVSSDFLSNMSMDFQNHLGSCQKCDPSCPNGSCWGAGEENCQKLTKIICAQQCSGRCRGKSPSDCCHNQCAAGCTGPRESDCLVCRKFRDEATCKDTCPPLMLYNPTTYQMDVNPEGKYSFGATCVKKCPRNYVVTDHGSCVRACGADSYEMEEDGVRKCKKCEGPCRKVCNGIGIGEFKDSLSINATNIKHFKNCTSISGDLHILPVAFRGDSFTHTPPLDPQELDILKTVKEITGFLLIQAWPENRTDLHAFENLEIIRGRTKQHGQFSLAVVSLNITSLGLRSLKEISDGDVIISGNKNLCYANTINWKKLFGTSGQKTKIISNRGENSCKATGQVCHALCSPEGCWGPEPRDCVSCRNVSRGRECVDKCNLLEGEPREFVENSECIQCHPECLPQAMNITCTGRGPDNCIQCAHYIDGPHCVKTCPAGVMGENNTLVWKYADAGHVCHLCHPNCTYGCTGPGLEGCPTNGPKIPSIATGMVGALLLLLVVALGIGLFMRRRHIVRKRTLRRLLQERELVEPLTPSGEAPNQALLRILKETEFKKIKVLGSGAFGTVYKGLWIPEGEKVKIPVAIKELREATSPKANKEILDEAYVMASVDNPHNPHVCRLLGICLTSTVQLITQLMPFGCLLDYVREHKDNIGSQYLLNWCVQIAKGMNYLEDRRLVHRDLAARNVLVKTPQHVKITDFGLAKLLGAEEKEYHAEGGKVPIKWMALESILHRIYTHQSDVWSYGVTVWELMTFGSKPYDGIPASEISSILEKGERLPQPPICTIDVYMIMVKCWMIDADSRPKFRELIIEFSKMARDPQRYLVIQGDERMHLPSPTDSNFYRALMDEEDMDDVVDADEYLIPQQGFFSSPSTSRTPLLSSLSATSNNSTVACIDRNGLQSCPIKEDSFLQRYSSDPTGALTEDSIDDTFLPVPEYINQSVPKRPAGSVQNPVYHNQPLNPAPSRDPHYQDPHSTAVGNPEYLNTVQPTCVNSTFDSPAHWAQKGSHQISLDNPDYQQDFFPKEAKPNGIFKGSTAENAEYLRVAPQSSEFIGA
# [5] = biological target: T3, human EGFR exon 20 V769_D770insASV (Homo sapiens, UniProt P00533, INS769ASV); test: EGFR Exon20 ASV insertion cellular phosphorylation inhibition (MSD pEGFR Y1068/total EGFR); conditions: Ba/F3 EGFR ASV ins cells, 4 h compound, p-EGFR(Y1068)/total EGFR;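 note: electrochemiluminescent readout on an MSD SECTOR Imager, IL3-independent transduced cells in medium with 1% FBS, compound concentration series at 37 °C and 5% CO2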
# T3 construct: expressed in transfected cells; host or cells: Ba/F3 (DSMZ ACC-300), lentiviral transduction, puromycin selection, IL3 depletion
# T3 sequence (P00533 with tags, fused parts or gaps INS769ASV): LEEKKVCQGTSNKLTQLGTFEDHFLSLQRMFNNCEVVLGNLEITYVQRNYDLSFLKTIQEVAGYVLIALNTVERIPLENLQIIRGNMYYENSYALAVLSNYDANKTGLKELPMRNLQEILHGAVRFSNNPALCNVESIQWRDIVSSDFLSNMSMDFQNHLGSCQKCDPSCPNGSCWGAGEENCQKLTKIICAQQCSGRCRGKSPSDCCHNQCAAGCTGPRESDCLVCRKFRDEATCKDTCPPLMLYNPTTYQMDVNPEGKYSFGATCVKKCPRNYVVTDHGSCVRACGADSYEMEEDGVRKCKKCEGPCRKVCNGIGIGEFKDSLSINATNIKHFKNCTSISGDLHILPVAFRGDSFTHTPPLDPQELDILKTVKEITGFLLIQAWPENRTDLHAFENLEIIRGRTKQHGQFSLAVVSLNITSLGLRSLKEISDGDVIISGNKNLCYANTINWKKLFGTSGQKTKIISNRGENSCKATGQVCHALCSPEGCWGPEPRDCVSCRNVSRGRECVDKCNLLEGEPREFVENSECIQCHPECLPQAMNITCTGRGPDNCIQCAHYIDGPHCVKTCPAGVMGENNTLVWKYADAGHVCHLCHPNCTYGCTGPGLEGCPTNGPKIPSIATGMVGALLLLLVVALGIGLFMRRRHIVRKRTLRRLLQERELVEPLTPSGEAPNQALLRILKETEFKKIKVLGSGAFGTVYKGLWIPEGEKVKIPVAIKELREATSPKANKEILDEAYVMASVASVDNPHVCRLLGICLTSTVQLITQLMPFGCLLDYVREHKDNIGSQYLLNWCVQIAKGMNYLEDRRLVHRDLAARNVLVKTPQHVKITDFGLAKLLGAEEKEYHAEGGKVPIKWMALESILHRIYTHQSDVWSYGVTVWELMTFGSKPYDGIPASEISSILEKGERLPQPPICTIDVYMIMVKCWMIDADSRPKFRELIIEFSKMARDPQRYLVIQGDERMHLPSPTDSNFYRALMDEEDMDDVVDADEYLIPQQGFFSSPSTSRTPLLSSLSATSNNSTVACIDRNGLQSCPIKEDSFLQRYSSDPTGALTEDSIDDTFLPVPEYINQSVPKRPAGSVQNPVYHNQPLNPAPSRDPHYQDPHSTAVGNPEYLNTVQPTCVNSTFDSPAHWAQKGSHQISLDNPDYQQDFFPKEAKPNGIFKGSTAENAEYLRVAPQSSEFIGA
# EGFR L858R&T790M = biological target: T4, EGFR L858R&T790M (Homo sapiens, UniProt P00533, L858R/T790M); test: EGFR L858R and T790M cellular phosphorylation inhibition in NCI-H1975 (MSD); conditions: NCI-H1975 cells, 4 h compound, p-EGFR(Y1068)/total EGFR; read-out: EGFR L858R and T790M mutation IC50;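 note: phosphorylated and total EGFR detected by electrochemiluminescence, cells exposed to compound in medium containing 1% FBS at 37 °C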
# T4 construct: host or cells: NCI-H1975
# T4 sequence (P00533 25-1210 T790M/L858R): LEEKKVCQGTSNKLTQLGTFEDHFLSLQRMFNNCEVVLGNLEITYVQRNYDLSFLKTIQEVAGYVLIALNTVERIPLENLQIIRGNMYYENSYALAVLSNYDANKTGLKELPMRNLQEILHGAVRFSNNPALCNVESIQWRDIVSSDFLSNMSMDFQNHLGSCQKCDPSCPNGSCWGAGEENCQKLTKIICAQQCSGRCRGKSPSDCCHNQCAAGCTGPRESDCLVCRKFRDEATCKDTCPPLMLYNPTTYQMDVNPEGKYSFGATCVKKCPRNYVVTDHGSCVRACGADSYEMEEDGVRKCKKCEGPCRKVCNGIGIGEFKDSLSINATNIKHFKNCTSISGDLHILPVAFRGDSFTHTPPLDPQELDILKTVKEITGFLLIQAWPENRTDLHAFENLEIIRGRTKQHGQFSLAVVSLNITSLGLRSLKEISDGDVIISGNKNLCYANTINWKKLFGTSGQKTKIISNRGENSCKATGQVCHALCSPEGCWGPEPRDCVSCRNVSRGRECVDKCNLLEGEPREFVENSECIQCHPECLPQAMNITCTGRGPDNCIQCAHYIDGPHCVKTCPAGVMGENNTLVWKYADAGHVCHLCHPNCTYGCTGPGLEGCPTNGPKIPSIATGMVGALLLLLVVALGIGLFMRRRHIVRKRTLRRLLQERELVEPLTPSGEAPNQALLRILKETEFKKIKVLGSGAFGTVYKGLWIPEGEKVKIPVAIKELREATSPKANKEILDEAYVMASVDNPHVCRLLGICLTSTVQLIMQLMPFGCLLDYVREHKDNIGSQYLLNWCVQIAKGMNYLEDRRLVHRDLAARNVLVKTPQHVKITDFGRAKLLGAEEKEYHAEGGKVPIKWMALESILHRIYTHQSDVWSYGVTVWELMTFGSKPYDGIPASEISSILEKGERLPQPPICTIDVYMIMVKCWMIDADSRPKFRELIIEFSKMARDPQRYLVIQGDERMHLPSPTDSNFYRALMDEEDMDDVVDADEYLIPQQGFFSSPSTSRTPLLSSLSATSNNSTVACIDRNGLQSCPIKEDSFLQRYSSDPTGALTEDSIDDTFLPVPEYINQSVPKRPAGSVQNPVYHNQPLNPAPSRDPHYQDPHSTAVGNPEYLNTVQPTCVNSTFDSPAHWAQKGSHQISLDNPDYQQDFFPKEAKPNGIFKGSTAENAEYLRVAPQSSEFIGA
# Procedure: One day before the test, WT or mutant cells were seeded in 96 well plates at appropriate concentrations with corresponding growth media supplemented with 1% FBS, and incubated overnight. The next day, tested compounds at a series of concentrations were added into each individual well of the plates, and the plates were incubated for 4 h at 37° C. with 5% CO2.
# The EGFR (Y1068) phosphorylation level (activity) of cells in each well were then measured with MSD kit named “MULTI-SPOT®96 4-Spot HB Prototype EGFR Triplex [sequence]: pEGFR(Tyr1068),pEGFR(Tyr1173), Total EGFR” according to the manufacturer’s instruction (MESO SCALE DISCOVERY, Cat# N45ZB-1). The assay is an electrochemiluminescent method for determining both phosphorylated and total EGFR of cells with an MSD SECTOR® Imager and the ratio of p-EGFR/total EGFR can be generated by the machine. The Her2 (Y1248) phosphorylation level (activity) of cells in each well were measured with MSD Kit named “Phospho-ErbB2 (Tyr1248) Assay Whole Cell Lysate Kit” according to the manufacturer’s instruction (MESO SCALE DISCOVERY, Cat# K151CLD-3). The assay is an electrochemiluminescent method (MESO SCALE DISCOVERY) for determining both phosphorylated and total Her2 of cells with an MSD SECTOR® Imager and then the ratio of p-Her2/total Her2 can be generated by the machine.
# [6] = read-out: EGFR Exon20 NPH insertion GI50 (nM)
# [7] = read-out: EGFR WT A431 GI50 (nM)
# [8] = read-out: EGFR Exon20 ASV insertion GI50 (nM)
# [9] = read-out: Her2 Exon 20 YVMA insertion GI50 (nM)
# [10] = read-out: EGFR L858R and T790M mutation GI50 (nM)
# [11] = OCI-LY-10 cells, 72 h, CellTiter-Glo
# [12] = Ri-1 cells, 72 h, CellTiter-Glo
# [13] = Ba/F3 EGFR NPH ins, 72 h proliferation, read-out: EGFR Exon20 NPH insertion GI50
# [14] = A431, 72 h proliferation, read-out: EGFR WT A431 GI50
# [15] = Ba/F3 EGFR ASV ins, 72 h proliferation, read-out: EGFR Exon20 ASV insertion GI50
# [16] = TMD-8 cells, 72 h, CellTiter-Glo
# [17] = Her2 YVMAins cells, 72 h proliferation, read-out: Her2 Exon 20 YVMA insertion GI50
# [18] = NCI-H1975, 72 h proliferation, read-out: EGFR L858R and T790M mutation GI50
SMILES,pIC50 [3],GI50 (OCI-LY-10 cells; [11]),GI50 (Ba/F3 EGFR NPH ins cells; [13]),pIC50 [4],GI50 (WT EGFR cell line A-431; [14]),GI50 (Ba/F3 EGFR ASV ins cells; [15]),pIC50 [5],"GI50 [2, 18]","GI50 (DB cells; DB cells, CellTiter-Glo)",GI50 (Ri-1 cells; [12]),GI50 (TMD-8 cells; [16]),"GI50 [1, 17]",other results
"C=CC(=O)Nc1cc(Nc2nccc(-c3cn(C)c4ccccc34)n2)c(OC)cc1N(C)CCN(C)C [AZD9291, osimertinib, reference compound]",,,,,,,,,,,,,"GI50 (DB cells): 1020 nM; GI50 (OCI-LY-10 cells): 1040 nM; GI50 (Ri-1 cells): 2050 nM; GI50 (Ba/F3 EGFR NPH ins cells; [6]): 177 nM; GI50 (WT EGFR cell line A-431; [7]): 43.7 nM; GI50 (Ba/F3 EGFR ASV ins cells; [8]): 207 nM; GI50 (TMD-8 cells): 1090 nM; GI50 [1, 9]: 294 nM; GI50 [2, 10]: 14.5 nM"
"CN(C)C/C=C/C(=O)Nc1cc2c(Nc3ccc(F)c(Cl)c3)ncnc2cc1O[C@H]1CCOC1 [Afatinib, reference compound]",,,,,,,,,,,,,"GI50 (DB cells): 657 nM; GI50 (OCI-LY-10 cells): 1040 nM; GI50 (Ri-1 cells): 1030 nM; GI50 (TMD-8 cells): 1160 nM; GI50 [1, 9]: 17.8 nM"
C=CC(=O)Nc1cc(Nc2ncnc(Nc3cc(F)c(F)cc3C(C)(C)O)n2)c(OC)cc1N(C)CCN1CCCCC1 [Compound 24],7.31,324 nM,142 nM,7.19,55.5 nM,101 nM,7.52,23 nM,> 3000 nM,415 nM,107 nM,303 nM,
"C=CC(=O)Nc1cc(Nc2ncc(OC)c(Nc3cc(Cl)c(F)cc3C(C)(C)O)n2)c(OC)cc1N(C)CCN(C)C [Compound 81, N-(5-(4-(5-chloro-4-fluoro-2-(2-hydroxypropan-2-yl)phenylamino)-5-methoxypyrimidin-2-ylamino)-2-((2-(dimethylamino)ethyl)(methyl)amino)-4-methoxyphenyl)acrylamide]",6.52,,136 nM,7.09,35.7 nM,149 nM,,4.6 nM,,,,354 nM,pIC50 (EGFR L858R&T790M): 8.96
"C=CC(=O)Nc1cc(Nc2nccc(Nc3cc(Cl)c(F)cc3C(C)(C)O)n2)c(OC)cc1N(C)C[C@H]1C[C@H](C)CN1C [Compound 90, N-(5-(4-(5-chloro-4-fluoro-2-(2-hydroxypropan-2-yl)phenylamino)pyrimidin-2-ylamino)-2-((((2R,4S)-1,4-dimethylpyrrolidin-2-yl)methyl)(methyl)amino)-4-methoxyphenyl) acrylamide formic acid salt]",7.56,82.7 nM,,7.51,,,7.24,,> 3000 nM,83.8 nM,45 nM,284 nM,"GI50 (Ba/F3 EGFR NPH ins cells; [6]): 76.4 nM; GI50 (WT EGFR cell line A-431; [7]): 59.4 nM; GI50 (Ba/F3 EGFR ASV ins cells; [8]): 83.1 nM; GI50 [2, 10]: 6.1 nM"
"Cc1cc(C(=O)Nc2nc3cccc(Cl)c3n2[C@@H]2CCCCN(C(=O)/C=C/CN(C)C)C2)ccn1 [EGF816, reference compound]",6.93,235 nM,491 nM,,265 nM,502 nM,,42.5 nM,> 3000 nM,897 nM,166 nM,242 nM,
"CCOc1cc2ncc(C#N)c(Nc3ccc(OCc4ccccn4)c(Cl)c3)c2cc1NC(=O)/C=C/CN(C)C [Neratinib, reference compound]",,,,,,,,,,,,,"GI50 (Ba/F3 EGFR NPH ins cells; [6]): 700 nM; GI50 (WT EGFR cell line A-431; [7]): 15.9 nM; GI50 (Ba/F3 EGFR ASV ins cells; [8]): 88 nM; GI50 [1, 9]: 5.2 nM; GI50 [2, 10]: 110 nM"
"C=CC(=O)N1CCC(Oc2cc3c(Nc4ccc(Cl)c(Cl)c4F)ncnc3cc2OC)CC1 [Poziotinib, reference compound]",9.10,1000 nM,7.2 nM,,0.5 nM,4.1 nM,,19.4 nM,> 3000 nM,1230 nM,2410 nM,4.7 nM,

# The next lines start with results.
pIC50 [3],GI50 (OCI-LY-10 cells; [11]),GI50 (Ba/F3 EGFR NPH ins cells; [13]),pIC50 [4],GI50 (WT EGFR cell line A-431; [14]),GI50 (Ba/F3 EGFR ASV ins cells; [15]),pIC50 [5],"GI50 [2, 18]",SMILES,"GI50 (DB cells; DB cells, CellTiter-Glo)",GI50 (Ri-1 cells; [12]),GI50 (TMD-8 cells; [16]),"GI50 [1, 17]",other results
7.01,210 nM,625 nM,6.42,64.7 nM,250 nM,6.72,93.7 nM,"C=CC(=O)Nc1cc(Nc2ncnc(Nc3cnc(C)cc3C(C)(C)O)n2)c(OC)cc1N(C)CCN(C)C [Compound 6, N-(2-((2-(dimethylamino)ethyl)(methyl)amino)-5-(4-(4-(2-hydroxypropan-2-yl)-6-methylpyridin-3-ylamino)-1,3,5-triazin-2-ylamino)-4-methoxyphenyl) acrylamide]",> 3000 nM,289 nM,335 nM,534 nM,
7.71,130 nM,212 nM,7.33,37.9 nM,145 nM,7.39,25 nM,"C=CC(=O)Nc1cc(Nc2ncnc(Nc3ccc(C)nc3C(C)(C)O)n2)c(OC)cc1N(C)CCN(C)C [Compound 7, N-(2-((2-(dimethylamino)ethyl)(methyl)amino)-5-(4-(2-(2-hydroxypropan-2-yl)-6-methylpyridin-3-ylamino)-1,3,5-triazin-2-ylamino)-4-methoxyphenyl) acrylamide]",> 3000 nM,> 3000 nM,188 nM,161 nM,
6.64,> 3000 nM,189 nM,6.92,79.4 nM,198 nM,7.13,76.3 nM,"C=CC(=O)Nc1cc(Nc2ncnc(Nc3ccccc3C3(O)COC3)n2)c(OC)cc1N(C)CCN(C)C [Compound 10, N-(2-((2-(dimethylamino)ethyl)(methyl)amino)-5-(4-(2-(3-hydroxyoxetan-3-yl)phenylamino)-1,3,5-triazin-2-ylamino)-4-methoxyphenyl)acrylamide]",> 3000 nM,> 3000 nM,> 3000 nM,274 nM,
7.44,54.5 nM,76.5 nM,7.40,22.5 nM,53.3 nM,7.64,15.3 nM,"C=CC(=O)Nc1cc(Nc2ncnc(Nc3ccc(C(F)(F)F)cc3C(C)(C)O)n2)c(OC)cc1N(C)CCN(C)C [Compound 13, N-(2-((2-(dimethylamino)ethyl)(methyl)amino)-5-(4-(2-(2-hydroxypropan-2-yl)-4-(trifluoromethyl)phenylamino)-1,3,5-triazin-2-ylamino)-4-methoxyphenyl)acrylamide]",> 3000 nM,120 nM,56.3 nM,156 nM,
7.71,6.2 nM,60 nM,,21.5 nM,35.7 nM,,1.4 nM,"C=CC(=O)Nc1cc(Nc2ncc(Cl)c(Nc3cc(Cl)c(F)cc3C(C)(C)O)n2)c(OC)cc1N(C)CCN(C)C [Compound 78, N-(5-(5-chloro-4-(5-chloro-4-fluoro-2-(2-hydroxypropan-2-yl)phenylamino)pyrimidin-2-ylamino)-2-((2-(dimethylamino)ethyl)(methyl)amino)-4-methoxyphenyl)acrylamide]",> 3000 nM,77.8 nM,10.3 nM,49.2 nM,
